Source: patent US20190031717A1, “MULTI-FUNCTIONAL FUSION POLYPEPTIDE, PREPARATION METHOD THEREOF, AND APPLICATION OF SAME” (NANJING ANJI BIOLOGICAL TECHNOLOGY CO., LTD, priority 2016, published 2019)

Assays:
Cervical cancer = test: MTT assay, tumor cells; type: cell-based, human; design: concentration or dose not given beside the values; settings: 48 hours, mean ± SD
Protocol: (§1) A variety of human tumor cells were cultured in a 37° C., 5% (volume fraction) CO2 incubator to a density of 90% or more, collected by trypsinization, resuspended in a culture medium and counted under a microscope, and the cells were harvested. The concentration was adjusted to 2.0×10^4 cells/mL, the cell suspension was inoculated into a 96-well plate at 100 μL per well and cultured overnight at 37° C. in a 5% (volume fraction) CO2 incubator. After the cells were completely adhered, the polypeptides of the present invention were added as drug-administered groups, and a culture solution containing no drug was used as a blank control group, and the culture solution was diluted to each predetermined concentration. Each dilution was separately added to a 96-well plate at 100 μL per well and incubated for 48 hours at 37° C. in a 5% (volume fraction) CO2 incubator. 20 μL of 5 mg/mL MTT was added to each well of a 96-well plate and incubation was continued for 4 h. The medium was aspirated and dissolved in 100 μL of DMSO per well. The absorbance was measured with a microplate reader at a detection wavelength of 570 nm and a reference wavelength of 630 nm, and the growth inhibition rate was calculated as follows: tumor growth inhibition rate (%)=(1−absorbance value of the administered group/unadministered group absorbance value)×100%, and the experiment was repeated 3 times independently. The results obtained from the test were expressed as mean±standard deviation, and the tumor growth inhibition rate of the unadministered group was 0. The results in Table 7 indicate that the polypeptides of the present invention have a significant inhibitory effect on the growth of various tumors (FIG. 6).

Melanoma = test: MTT assay, tumor cells; type: cell-based, human; design: concentration or dose not given beside the values; settings: 48 hours, mean ± SD
Protocol: as §1

Pancreatic cancer = test: MTT assay, tumor cells; type: cell-based, human; design: concentration or dose not given beside the values; settings: 48 hours, mean ± SD
Protocol: as §1

Gastric cancer = test: MTT assay, tumor cells; type: cell-based, human; design: concentration or dose not given beside the values; settings: 48 hours, mean ± SD
Protocol: as §1

sarcoma = test: MTT assay, tumor cells; type: cell-based, human; design: concentration or dose not given beside the values; settings: 48 hours, mean ± SD
Protocol: as §1

Head and neck cancer = test: MTT assay, tumor cells; type: cell-based, human; design: concentration or dose not given beside the values; settings: 48 hours, mean ± SD
Protocol: as §1

Ovarian cancer = test: MTT assay, tumor cells; type: cell-based, human; design: concentration or dose not given beside the values; settings: 48 hours, mean ± SD
Protocol: as §1

Bladder Cancer = test: MTT assay, tumor cells; type: cell-based, human; design: concentration or dose not given beside the values; settings: 48 hours, mean ± SD
Protocol: as §1

Liver cancer = test: MTT assay, tumor cells; type: cell-based, human; design: concentration or dose not given beside the values; settings: 48 hours, mean ± SD
Protocol: as §1

Staphylococcal fluid = test: Mouse pneumonia model, bacterial; type: in vivo, BALB/C mice; design: concentration or dose not given beside the values; settings: mean ± SD
Protocol: (§2) The mouse pneumonia model was successfully established by the nose-drop method. To build the mouse pneumonia model, BALB/C mice with a body mass of 16-22 g were selected and anesthetized pneumonia chain was prepared after anesthesia with ether on day 0, day 1, and day 2. Staphylococcal fluid, adenovirus concentrate, Mycoplasma pneumoniae, Chlamydia pneumoniae, protozoa, and pneumonia fungi were slowly dripped into the nasal cavity of the mice, so that they enter the tracheobronchial. During the operation process, care was exercised to prevent bacterial fluid from flowing into the esophagus, which leads to inactivation the bacterial fluid. After successful model establishment, the polypeptides of the present invention were administered, and the results were shown in Table 5. […] The results were expressed in average value±standard deviation.

[1] = test system: A549 cells induced by TGF-β1 (lung fibrosis model); test: Hydroxyproline content in TGF-β1-induced A549 pulmonary fibrosis cell model; type: cell-based, human; settings: for Hydroxyproline Content Inhibition Rate in the Pulmonary Fibrosis Model: 48 hours
Protocol: Human non-small cell lung cancer cells A549 were cultured in DMEM medium containing 10% (volume fraction) fetal bovine serum, cultured in a carbon dioxide incubator with a volume fraction of 5% at 37° C., and changed once every other day, depending on cell density. A549 cells in logarithmic growth phase were digested with 0.25% trypsin to prepare a cell suspension, adjusted to a cell concentration of 1×10^9 cells/L, and seeded at a density of 4×10^5 cells/cm2 in a cell culture dish of 90 cm^2. The cells were randomly divided into two groups: (1) control group: cultured in DMEM containing 10% (volume fraction) fetal bovine serum; (2) model group: containing 10% (volume fraction) fetal bovine serum, transforming growth factor (TGF-β1, final concentration 5 μg/L) was cultured in DMEM. The cells were cultured at 37° C. in a volumetric 5% carbon dioxide incubator, and changed every other day, depending on the cell density. Cell morphology was observed daily using an inverted microscope to determine when the model was established. When A549 cells are changed from the cobblestone shape of the original epithelial cells to the long spindle shape of the interstitial cells, the modeling is successfully established.
After 48 hours of addition of the polypeptides, the cells of the control group, the model group, and the administration group were collected for subsequent measurement of molecular markers related to pulmonary fibrosis.
Hydroxyproline accounts for 13.4% of collagen, so the content of hydroxyproline can reflect the accumulation of collagen during pulmonary fibrosis, which in turn reflects the degree of pulmonary fibrosis.
Prepare citric acid buffer: 120 g of sodium citrate, 12 mL of glacial acetic acid, 46 g of citric acid, 34 g of sodium hydroxide, dissolved in distilled water, adjust the pH to 6.0, and then dilute to 1000 mL.
Prepare 0.05 mol/L chloramine T solution: weigh 7.05 g of chloramine T, dissolve in 100 mL of distilled water, then add 150 mL of ethylene glycol, and add 250 mL of citric acid buffer to mix well.
Prepare p-dimethylaminobenzaldehyde: Reagent A: Take 20 mL of absolute ethanol, slowly add 2.74 mL of concentrated sulfuric acid; Reagent B: Take 12.0 g of p-dimethylaminobenzaldehyde, slowly add 40 mL of absolute ethanol. Heat in a water bath to completely dissolve and cool to room temperature, then slowly add the A solution to B and mix well.
Prepare a […] perchloric acid solution: take 27 mL of perchloric acid and dilute to 100 mL with distilled water.
The specific steps are as follows: collect the cells in a 1 mL water solution and lyse the cells using a homogenizer; adjust the pH to neutral, dilute to 3 mL, add activated carbon to centrifuge; take 1 mL supernatant, add 1 mL solution 1 (1 mL citrate buffer and 1 mL 0.05 mol/L chloramine T solution), stand for 10 minutes, add 1 mL of perchloric acid, stand for 5 minutes, add 1 mL of p-dimethylaminobenzaldehyde reagent, keep in 60° C. water bath for 15 minutes; centrifuge at 3500 rpm/min for 10 minutes, take the supernatant to measure the absorbance value at a wavelength of 550 nm.
The test was repeated 3 times independently, and the inhibition rate was calculated as follows: inhibition rate (%)=(1−experimental group absorbance/model group absorbance)×100%.

Chlamydia pneumoniae = test: Mouse pneumonia model, chlamydia; type: in vivo, BALB/C mice; design: concentration or dose not given beside the values; settings: mean ± SD
Protocol: as §2

Substance	tumor growth inhibition rate, MTT Assay (Cervical cancer) [%]	tumor growth inhibition rate, MTT Assay (Melanoma) [%]	tumor growth inhibition rate, MTT Assay (Pancreatic cancer) [%]	tumor growth inhibition rate, MTT Assay (Gastric cancer) [%]	tumor growth inhibition rate, MTT Assay (sarcoma) [%]	tumor growth inhibition rate, MTT Assay (Head and neck cancer) [%]	tumor growth inhibition rate, MTT Assay (Ovarian cancer) [%]	tumor growth inhibition rate, MTT Assay (Bladder Cancer) [%]	tumor growth inhibition rate, MTT Assay (Liver cancer) [%]	Inhibitory Effects on Various Pulmonary Infections (Staphylococcal fluid) [%]	effect on content of hydroxyproline in lung fibrosis model cells (FIG. 1-3), in words [1]	Hydroxyproline Content Inhibition Rate in the Pulmonary Fibrosis Model ([1]; 4 uM) [%]	Hydroxyproline Content Inhibition Rate in the Pulmonary Fibrosis Model ([1]; 8 uM) [%]	Inhibitory Effects on Various Pulmonary Infections (Chlamydia pneumoniae) [%]
Pro-(D-Pyr)-(D-Cys)-Bip-Arg-Gly-Glu-Gly-Gly-Gly-Gly-Arg-Gly-Asp-Gly-Gly-Gly-Gly-Ile-Val-Arg-Arg-Ala-Asp-Arg-Ala-Ala-Val-Pro [Polypeptide VI]	67.39 ± 21.82	50.89 ± 11.54	65.89 ± 18.21	58.09 ± 16.44	59.01 ± 13.39	43.46 ± 9.86	81.29 ± 18.44	46.43 ± 10.53	65.26 ± 14.80	39.78 ± 9.86	can inhibit the content of hydroxyproline in lung fibrosis model cells	29.55	54.17	42.16 ± 13.36
Pro-(D-Pyr)-(D-Cys)-Bip-Arg-Gly-Glu-Gly-Gly-Gly-Gly-Ile-Val-Arg-Arg-Ala-Asp-Arg-Ala-Ala-Val-Pro-Gly-Gly-Gly-Gly-Arg-Gly-Asp [Polypeptide I]	56.16 ± 22.27	42.41 ± 11.78	54.91 ± 18.59	48.41 ± 16.78	49.18 ± 13.66	36.22 ± 10.06	67.74 ± 18.82	38.69 ± 10.75	54.38 ± 15.11	33.15 ± 10.06	can inhibit the content of hydroxyproline in lung fibrosis model cells	36.50	52.14	35.13 ± 13.63
